# Measured values reported in patent publication US20160158200A1, “Combinations of Hepatitis C Virus Inhibitors” (priority 2013, published 2016).
# Assays:
# [1] = test system: HCV genotype 1a L31V variant with leucine 31 changed to valine in the NS5A protein; experiment: microbe, parasite or virus in culture; type: cell-based; settings: genotype 1a L31V replicon; test compound titrated with compound N47 fixed at 200 nM versus singly
# [2] = test system: HCV genotype 1a Y93H variant with tyrosine 93 changed to histidine in the NS5A protein; experiment: microbe, parasite or virus in culture; type: cell-based; settings: genotype 1a Y93H replicon; test compound titrated with compound N47 fixed at 200 nM versus singly
# Method in brief: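 In an HCV genotype 1a replicon cell-based assay carrying the NS5A Y93H substitution, BMS-790052 was tested alone and in combination with a fixed amount of a second test compound. The combinations were examined for synergistic activity.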
Compound,Fold-Synergistic G-1a (L31V) [1] [fold],Fold-Synergistic G-1a (Y93H) [2] [fold]
COC(=O)N[C@H](C(=O)N1[C@@H](C)CC[C@H]1c1ncc(-c2ccc(-c3ccc4cc(-c5cnc([C@@H]6CC[C@H](C)N6C(=O)[C@@H](NC(=O)OC)C6CCOCC6)[nH]5)ccc4c3)cc2)[nH]1)C1CCOCC1,<10,>10
COC(=O)N[C@H](C(=O)N1[C@@H]2C[C@@H]2C[C@H]1c1nc2cc(-c3ccc(Oc4cccc5[nH]c([C@@H]6C[C@H]7C[C@H]7N6C(=O)[C@@H](NC(=O)OC)C(C)C)nc45)cc3)ccc2[nH]1)C(C)C,>10,>100
COC(=O)N[C@H](C(=O)N1[C@@H]2C[C@@H]2C[C@H]1c1nc(-c2ccc3cc(-c4ccc5cc(-c6c[nH]c([C@@H]7C[C@H]8C[C@H]8N7C(=O)[C@@H](NC(=O)OC)C(C)C)n6)ccc5c4)ccc3c2)c[nH]1)C(C)C,<10,<10
COC(=O)N[C@H](C(=O)N1CCC[C@H]1c1nc2ccc(Oc3ccc(-c4ccc5nc([C@@H]6CCCN6C(=O)[C@@H](NC(=O)OC)C(C)C)[nH]c5c4)cc3)cc2[nH]1)C(C)C,<10,<10
O=C(Cc1ccccc1)N1CCC[C@H]1c1nc2cc(CCc3ccc4nc([C@@H]5CCCN5C(=O)Cc5ccccc5)[nH]c4c3)ccc2[nH]1,<10,<10
COC(=O)N[C@H](C(=O)N1CCC[C@H]1c1nc2ccc(-c3ccc4nc(-c5ccc6nc([C@@H]7CCCN7C(=O)[C@@H](NC(=O)OC)C(C)C)[nH]c6c5)ccc4c3)cc2[nH]1)C(C)C,>10,>10
COC(=O)N[C@H](C(=O)N1[C@@H](C)CC[C@H]1c1ncc(-c2ccc3c(c2)CCc2cc(-c4cnc([C@@H]5CC[C@H](C)N5C(=O)[C@@H](NC(=O)OC)C(C)C)[nH]4)ccc2-3)[nH]1)C(C)C,>100,>100
COC(=O)N[C@H](C(=O)N1[C@@H]2C[C@@H]2C[C@H]1c1cnc(-c2ccc(C#Cc3ccc(-c4ncc([C@@H]5C[C@H]6C[C@H]6N5C(=O)[C@@H](NC(=O)OC)C(C)C)[nH]4)cc3)cc2)[nH]1)C(C)C,<10,>10
CN(C)[C@@H](C(=O)Nc1cccc(-c2ncc(-c3ccc4nc([C@@H]5CCCN5C(=O)[C@@H](c5ccccc5)N(C)C)[nH]c4c3)o2)c1)c1ccccc1,<10,<10
COC(=O)N[C@H](C(=O)N1[C@@H]2C[C@@H]2C[C@H]1c1nc2ccc(C#CC#Cc3ccc4nc([C@@H]5C[C@H]6C[C@H]6N5C(=O)[C@@H](NC(=O)OC)C(C)C)[nH]c4c3)cc2[nH]1)C(C)C,>10,>100
COC(=O)N[C@H](C(=O)N1[C@@H]2C[C@@H]2C[C@H]1c1ncc(-c2ccc3cc(-c4ccc5[nH]c([C@@H]6C[C@H]7C[C@H]7N6C(=O)[C@@H](NC(=O)OC)C(C)C)nc5c4)ccc3c2)[nH]1)C(C)C,>100,>100
C[C@H](NC(=O)OCc1ccccc1)c1nc2ccc(CCc3ccc4nc([C@H](C)NC(=O)OCc5ccccc5)[nH]c4c3)cc2[nH]1,<10,<10
COC(=O)N[C@H](C(=O)N1CCC[C@H]1c1ncc(-c2ccc(-c3ncc(-c4cnc([C@@H]5CCCN5C(=O)[C@@H](NC(=O)OC)C(C)C)[nH]4)cn3)cc2)[nH]1)C(C)C,>100,>100
COC(=O)N[C@H](C(=O)N1[C@@H]2C[C@@H]2C[C@H]1c1ncc(-c2ccc(-c3ccc(-c4ccc(-c5cnc([C@@H]6C[C@H]7C[C@H]7N6C(=O)[C@@H](NC(=O)OC)C(C)C)[nH]5)cc4)c4[nH]ccc34)cc2)[nH]1)C(C)C,>10,>10
CN(C)[C@@H](C(=O)N1CCC[C@H]1c1nc2ccc(-c3ccc4nc([C@@H]5CCCN5C(=O)[C@@H](c5ccccc5)N(C)C)[nH]c4c3)cc2[nH]1)c1ccccc1,<10,<10
COC(=O)N[C@H](C(=O)N1[C@@H]2C[C@@H]2C[C@H]1c1ncc(-c2ccc(-c3ccc(-c4cnc([C@@H]5C[C@H]6C[C@H]6N5C(=O)[C@@H](NC(=O)OC)C(C)C)[nH]4)cc3)cc2)[nH]1)C(C)C,>100,>100

Compound,Fold-Synergistic G-1a (L31V) [1] [fold],Fold-Synergistic G-1a (Y93H) [2] [fold]
CN1CCN(C(C(=O)N2CCC[C@H]2C(=O)Nc2ccc(C#Cc3ccc(NC(=O)[C@@H]4CCCN4C(=O)C(c4ccccc4)N4CCN(C)CC4)cc3)cc2)c2ccccc2)CC1 (stereo partly shown),<10,<10
COC(=O)N[C@H](C(=O)N1[C@H](c2ncc(-c3ccc(-c4ccc(-c5cnc([C@@H]6CCN(C)N6C(=O)[C@@H](NC(=O)OC)C(C)C)[nH]5)cc4)cc3)[nH]2)CCN1C)C(C)C,>100,>100
COC(=O)N[C@H](C(=O)N1CCC[C@H]1c1nc(-c2ccc(-c3ccc4nc([C@@H]5CCCN5C(=O)[C@@H](NC(=O)OC)C(C)C)[nH]c4c3)cc2)c[nH]1)C(C)C,>10,>100
COC(=O)N[C@H](C(=O)N1CCC[C@H]1C(=O)NC1Cc2ccc(-c3ccc4c(c3)CC(NC(=O)[C@@H]3CCCN3C(=O)[C@@H](NC(=O)OC)C(C)C)C4)cc2C1)C(C)C (stereo partly shown),>10,>10
CC[C@H](NC(=O)OC)C(=O)N1[C@@H]2C[C@@H]2C[C@H]1c1ncc(-c2ccc(C34CCC(c5cnc([C@@H]6C[C@H]7C[C@H]7N6C(=O)[C@H](CC)NC(=O)OC)[nH]5)(CC3)CC4)cc2)[nH]1,>100,>100
COC(=O)N[C@@H](C(=O)N1CCC[C@H]1c1nc2ccc(C(=O)c3ccc4nc([C@@H]5CCCN5C(=O)[C@H](NC(=O)OC)c5ccccc5)[nH]c4c3)cc2[nH]1)c1ccccc1,<10,<10
COC(=O)N[C@H](C(=O)N1C2CC2CC[C@H]1c1ncc(-c2ccc(-c3ccc(-c4cnc([C@@H]5CCC6CC6N5C(=O)[C@@H](NC(=O)OC)C(C)C)[nH]4)cc3)cc2)[nH]1)C(C)C (stereo partly shown) [drawing 2298],>100,>100
COC(=O)N[C@H](C(=O)N1[C@H](C)CC[C@H]1c1nc(-c2ccc(-c3ccc4cc(-c5c[nH]c([C@@H]6CC[C@@H](C)N6C(=O)[C@@H](NC(=O)OC)C(C)C)n5)ccc4c3)cc2)c[nH]1)C(C)C,>10,<10
COC(=O)N[C@H](C(=O)N1CCC[C@H]1c1ncc(-c2ccc(-c3ccc4c(c3)CCc3nc([C@@H]5CCCN5C(=O)[C@@H](NC(=O)OC)C(C)C)[nH]c3-4)cc2)[nH]1)C(C)C,>100,>100
CN(C)[C@@H](C(=O)N1CCC[C@H]1c1nc(-c2ccc(COc3ccc(-c4c[nH]c([C@@H]5CCCN5C(=O)[C@@H](c5ccccc5)N(C)C)n4)cc3)cc2)c[nH]1)c1ccccc1,<10,<10
COC(=O)N[C@H](C(=O)N1CCC[C@H]1c1nc2cc(-c3ccc4cc(-c5ccc6[nH]c([C@@H]7CCCN7C(=O)[C@@H](NC(=O)OC)C(C)C)nc6c5)ccc4c3)ccc2[nH]1)C(C)C,>10,>10
COC(=O)N[C@H](C(=O)N1[C@@H]2C[C@@H]2C[C@H]1c1nc2ccc(-c3ccc4cc(-c5ccc6nc([C@@H]7C[C@H]8C[C@H]8N7C(=O)[C@@H](NC(=O)OC)C(C)C)[nH]c6c5)ccc4c3)cc2[nH]1)C(C)C,>10,>10
Cc1nc(-c2ccc(NC(=O)[C@@H]3CCCN3C(=O)Cc3ccccc3)cc2)c(-c2ccc(NC(=O)[C@@H]3CCCN3C(=O)Cc3ccccc3)cc2)s1,<10,<10
COC(=O)N[C@H](C(=O)N1CCC[C@H]1c1nc2cc(C#Cc3ccc(-c4[nH]cnc4[C@@H]4CCCN4C(=O)[C@@H](NC(=O)OC)C(C)C)cc3)ccc2[nH]1)C(C)C,<10,>10
CN1CCN(C(C(=O)N2CCC[C@H]2C(=O)Nc2ccc(-c3cnc(-c4ccc(NC(=O)[C@@H]5CCCN5C(=O)C(c5ccccc5)N5CCN(C)CC5)cc4)o3)cc2)c2ccccc2)CC1 (stereo partly shown),<10,<10
COC(=O)N[C@H](C(=O)N1CCC[C@H]1c1ncc(-c2ccc(-c3ccc(-c4cnc([C@@H]5CCCN5C(=O)[C@@H](NC(=O)OC)C(C)C)[nH]4)cc3)cc2)[nH]1)C(C)C,>100,>100
